According to patent US8450479B2, “3-substituted-4-oxo-3,4-dihydro-imidazo[5,1-d][1,2,3,5-tetrazine-8-carboxylic acid amides and their use” (Pharminox Limited, priority 2007, dated 2013):
“And” between values parts separate entries of the source, which are not always exact repeats. Equal entries are not always repeated. Where two headings read alike, the source gives them in different places.

What was measured:
Assay type in all cases: cell-based
Glioma SNB19V (MGMT−) = experiment: Clonogenic survival assay (Table 14, assay not named there)
Method: (§1) A clonogenic assay, which measures tumour cell survival and subsequent proliferative ability following drug exposure was used to verify that the cells remaining metabolically active following treatment with TMZ and new derivatives. See, e.g., Brown, J. M., et al., 1999, “Apoptosis, p53, and tumor cell sensitivity to anticancer agents”, Cancer Research, Vol. 59, No. 7, pp. 1391-1399.
(§2) Exponentially growing cells were seeded in triplicate at a density of 200 cells/well in 6 well plate and allowed to attach overnight and then exposed to increasing concentration of TMZ and test compounds (0, 5, 10, 100, 500, 1000 μM). After 18 hours, the plates were changed to drug free media and left to grow in the 37° C., 5% CO2 incubator. After 14 days, the plates were rinsed in PBS and fixed with pre-chilled methanol in room temperature for 20 minutes, and then stained with 0.5% methylene blue in 1:1 methanol/H2O (v/v) for 10 minutes and thoroughly washed in distilled water and air dried. Cell colonies containing >30 cells were counted. Growth inhibition by TMZ and test compounds was estimated by dividing the mean number of colonies under drug treatment by the mean number of colonies without drug treatment.

Glioma SNB19M (MGMT+) = experiment: as above
Method: as §1, §2

[1] = test system: Normal Human Fetal Lung Fibroblast MRC-5; experiment: MTT assay for 7-day toxicity assay
How it was run: (§3)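 Cells seeded at 400 cells/well, attached overnight, then exposed to compound at 0.5–1000 μM final for 7 days at 37 °C, 5% CO2. Viability read by MTT, with a day-0 plate fixed at drug addition as reference.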

[2] = test system: Colon HCT116 (MMR mutated); experiment: MTT assay for 7-day toxicity assay
How it was run: as §3

Colon DLD1 = experiment: MTT assay for 7-day toxicity assay
How it was run: as §3

[3] = Homo sapiens, MRC5, Normal Human Fetal Lung Fibroblast MRC-5, read-out: GI50
[4] = Normal Human Fetal Lung Fibroblast MRC-5, read-out: GI50
[5] = Homo sapiens, HCT-116, Colon HCT116 (MMR mutated), read-out: GI50
[6] = Homo sapiens, MRC5, 168 h, Normal Human Fetal Lung Fibroblast MRC-5, 7-day MTT, single determinations, read-out: GI50
[7] = Normal Human Fetal Lung Fibroblast MRC-5, 7-day MTT, single determinations, read-out: GI50
[8] = Homo sapiens, DLD-1, 168 h, Colon DLD1, 7-day MTT, single determinations, read-out: GI50
[9] = Homo sapiens, HCT-116, 168 h, Colon HCT116 (MMR mutated), 7-day MTT, single determinations, read-out: GI50
[10] = Colon HCT116 (MMR mutated), 7-day MTT, single determinations, read-out: GI50
[11] = Homo sapiens, DLD-1, Colon DLD1, read-out: GI50
[12] = Colon HCT116 (MMR mutated), read-out: GI50

Structure (SMILES) | GI50 (Glioma SNB19V (MGMT−)) [µM] | GI50 (Glioma SNB19M (MGMT+)) [µM] | GI50 [1, 3] [µM] | GI50 [1, 4] | GI50 [2, 5] [µM] | GI50 [1, 6] [µM] | GI50 [1, 7] [µM] | GI50 (Colon DLD1; [8]) [µM] | GI50 [2, 9] [µM] | GI50 [2, 10] | GI50 (Colon DLD1; [11]) [µM] | GI50 [2, 12] | GI50 (Glioma SNB19M (MGMT+); listed as Temozolomide) [µM] | GI50 ([1]; Homo sapiens, MRC5, Normal Human Fetal Lung Fibroblast MRC-5, average of Table 1, read-out: TMZ GI50 Average) [µM] | GI50 (Colon DLD1; Homo sapiens, DLD-1, Colon DLD1, average of Table 1, read-out: TMZ GI50 Average) [µM] | GI50 ([2]; Homo sapiens, HCT-116, Colon HCT116 (MMR mutated), average of Table 1, read-out: TMZ GI50 Average) [µM] | GI50 (Colon DLD1; Colon DLD1, read-out: GI50) [µM]
NC(=O)c1ncn2c(=O)n(CCl)nnc12 [PX-030] | 38.9 | 31.5 | 50.9 | 67.2 µM | 22.3 | – | – | – | – | – | – | – | – | – | – | – | –
C#CCn1nnc2c(C(N)=O)ncn2c1=O [EE-001, 3-Propargyl-8-carbamoylimidazotetrazin-4-one] | 7 | 7.8 | – | – | – | 56.1 | 66.6 | 29.9 | 59.9 | – | – | – | – | – | – | – | –
CCOC(=O)Cn1nnc2c(C(N)=O)ncn2c1=O [PX-016] | – | – | – | – | – | 109 | 197 | 61.1 | 65.2 | 66 µM | – | – | – | – | – | – | –
C[C@H](c1ccccc1)n1nnc2c(C(N)=O)ncn2c1=O [BB-001, (R)-3-(-1-Phenylethyl)-8-carbamoylimidazotetrazin-4-one] | 22.2 | 8.5 | – | – | – | 174 | – | 80.6 | 151 | 194 µM | – | – | – | – | – | – | –
COCn1nnc2c(C(N)=O)ncn2c1=O [PX-020] | 38.6 | 30 | 61.6 | 51.5 µM and 74.1 µM | 57.4 | – | – | – | – | – | 55.4 | 47.4 µM and 52.4 µM and 56.1 µM and 29.5 µM | – | – | – | – | –
Cn1nnc2c(C(N)=O)ncn2c1=O [TMZ, 3-Methyl-4-oxo-3,4-dihydro-imidazo[5,1-d][1,2,3,5]tetrazine-8-carboxylic acid amide, reference compound] | 32.2 | 875 | 449 | – | 591 | 441 | 458 | 435 | 607 | 570 µM and 594 µM | 435 | – | 834 | 449 | 435 | 591 | –
C[Si](C)(C)CCOCn1nnc2c(C(N)=O)ncn2c1=O [PX-021] | 43.3 | 22.1 | 48.6 | 65.4 µM | 33.6 | – | – | – | – | – | 53.7 | 39.8 µM and 36.6 µM and 40.1 µM | – | – | – | – | –
C[S+]([O-])Cn1nnc2c(C(N)=O)ncn2c1=O (centres unmarked) [UU-003, 3-Methanesulfinylmethyl-4-oxo-3,4-dihydro-imidazo[5,1-d][1,2,3,5]tetrazine-8-carboxylic acid amide] | – | – | 56.8 | 55.2 µM and 52.1 µM | 6.7 | – | – | – | – | – | 8.2 | 5.3 µM and 5 µM | – | – | – | – | 9.3
